Laboratory results taken from US20180303809A1, “TREATMENT OF BURN PAIN BY TRPV1 MODULATORS” (Purdue Pharma L.P., priority 2013, published 2018).
Several values for one entry are separate records, joined by “and”; a condition that tells them apart may be missing. Equal values may be shown once.

How the values were obtained:
Format in all cases: in vivo, rat
male Sprague-Dawley rats [1] = assay: Paw pressure assay, mechanical hyperalgesia (PWT) in thermal burn pain model; conditions: rat burn injury 55° C. 24 s
Method: (§1) Test Animals: Each experiment used male Sprague-Dawley rats weighing between 190-260 g at the time of thermal burn injury. The rats were housed two per cage, and were allowed to acclimate to their environment for at least six days before testing began. The rats had free access to food and water at all times, except during testing and prior to oral (PO) administration of a test compound, when food was removed about 16 hours before dosing. The rats were divided into treatment groups, and one of the following compounds was administered to each group at the dose and by the route of administration indicated in Tables 5.2A to 5.2C, 5.3A and 5.3B, and 5.4A and 5.4B: ketorolac (Sigma-Aldrich, St. Louis, Mo.), AMG 517 (selective TRPV1 antagonist described in Em. Doherty et al., “Novel vanilloid receptor-1 antagonists:2. Structure-activity relationships of 4-oxopyrimidines leading to the selection of a clinical candidate,” J Med Chem 50:3515-3527 (2007).) (Purdue Pharma L. P., Cranbury, N.J.), indomethacin (Alexis Biochemicals, Farmingdale, N.Y.), gabapentin (Bosche Scientific, New Brunswick, N.J.), or (S)-3-chloro-5-(1,2-dihydroxyethyl)-N-(5-(trifluoromethyl)pyridin-2-yl)-5′,6′-dihydro-[2,4′-bipyridine]-1′(2′H)-carboxamide (Compound 1). The control groups were administered the vehicle for the compound of formula (I). The volume of administration for PO treatment was 5 ml/kg, and was the same for all treatment groups. Volume of administration for intraperitoneal (i.p.) drug administration was 2 ml/kg.
(§2) To assess the actions of a compound of formula (I) for the treatment or prevention of burn pain, a model of thermal burn pain was used. A thermal burn injury was induced under isofluorane/O2 inhalation anesthesia. To assess mechanical hyperalgesia and weight bearing, a thermal injury was produced by immersing the left hind paw into water maintained at 55° C. for 24 seconds. The left hind paw of non-injured control animals was immersed in 22° C. water for 24 seconds. To assess thermal hyperalgesia, a thermal injury was produced by immersing the left hindpaw into water maintained at 50° C. for 48 seconds; the left hind-paw of non-injured control animals was immersed in 22° C. water for 48 seconds. The animals were assessed for response to noxious mechanical stimuli by determining PWT for mechanical hyperalgesia, weight bearing difference between the injured or non-injured side, or response to noxious thermal stimuli by determining PWL for thermal hyperalgesia, all as described below, prior to drug administration (baseline), then again at 1, 3 and 5 hours after induction of burn injury.
The paw pressure assay was used to assess mechanical hyperalgesia. For this assay, hind paw withdrawal thresholds (PWT) to a noxious mechanical stimulus were determined using an analgesimeter (Model 7200, commercially available from Ugo Basile of Italy) as described in C. Stein, “Unilateral Inflammation of the Hindpaw in Rats as a Model of Prolonged Noxious Stimulation: Alterations in Behavior and Nociceptive Thresholds,” Pharmacol. Biochem. and Behavior 31:451-455 (1988). The rat's paw was placed on a small platform, and weight was applied in a graded manner up to a maximum of 250 grams. The endpoint was taken as the weight at which the paw was completely withdrawn. PWT was determined once for each rat at each time point, wherein the affected (ipsilateral; same side as the injury) rear paw was tested. […] All drug treatment groups were compared to the vehicle control group (i.e. injured, administered only the vehicle).

male Sprague-Dawley rats [2] = assay: Plantar test, thermal hyperalgesia (PWL) in thermal burn pain model; conditions: rat burn injury 50° C. 48 s, 30 mg/kg PO
Method: as §1, §2
The plantar test was used to assess thermal hyperalgesia. For this test, hind paw withdrawal latencies (PWL) to a noxious thermal stimulus were determined using a plantar test apparatus (commercially available from Ugo Basile of Italy) following the technique described by K. Hargreaves et al., “A New and Sensitive Method for Measuring Thermal Nociception in Cutaneous Hyperalgesia,” Pain 32(1):77-88 (1988). The maximum exposure time was set at 32 seconds to avoid tissue damage and any directed paw withdrawal from the heat source is taken as the end point. Three latencies were determined at each time point and averaged.

male Sprague-Dawley rats [3] = assay: Hind limb weight bearing (incapacitance meter, % WL) in thermal burn pain model; conditions: rat burn injury 55° C. 24 s
Method: as §1, §2
A commercially available incapacitance meter was used to determine the weight distribution on the two hind paws of the animal (Linton Incapacitance Tester (Linton Instrumentation, Norfolk, UK)). The weight bearing difference (WBD) between the injured and non-injured hindpaw was measured. The animal was placed in the testing chamber that allows the animal to stand normally, distributing its body weight on the hind limbs for the test. Each hind paw was positioned on a separate pressure sensitive pad, which independently measures the pressure applied by each limb. The device continuously collects data after either a force threshold has been exceeded, or the investigator depresses the start pad. Rats were allowed to acclimate when placed on the apparatus, and when they were stationary, the force exerted was then continuously monitored for 3 s. The endpoint was the amount of pressure applied to each limb over time. Three readings were taken for each rat at each time point, and the average used for data analysis. WBD was expressed as “% WL”, i.e. the percentage of weight borne on the burn-injured left hind paw, using the following formula: […]
where WLP is the weight on the left hind paw and WRP is the weight on the right (untreated) hind paw. The 50% value of % WL corresponds to an equal weight distribution across both hind paws. […]

[4] = 30 mg/kg PO, 1 h after administration
[5] = 30 mg/kg PO, 3 h after administration
[6] = 30 mg/kg PO, 5 h after administration
[7] = 30 mg/kg PO, baseline (prior to drug administration)
[8] = baseline (prior to drug administration)
[9] = 3 mg/kg IP, 1 h after administration
[10] = 3 mg/kg IP, 3 h after administration
[11] = 3 mg/kg IP, 5 h after administration
[12] = 10 mg/kg IP, 1 h after administration
[13] = 10 mg/kg IP, 3 h after administration
[14] = 10 mg/kg IP, 5 h after administration
[15] = 30 mg/kg IP, 1 h after administration
[16] = 30 mg/kg IP, 3 h after administration
[17] = 30 mg/kg IP, 5 h after administration
[18] = 100 mg/kg IP in 0.9% NaCl, 1 h after administration, 100 mg/kg
[19] = 100 mg/kg IP in 0.9% NaCl, 5 h after administration, 100 mg/kg

With CC(=O)Nc1nc2c(Oc3cc(-c4ccc(C(F)(F)F)cc4)ncn3)cccc2s1 [AMG 517] the “% Decrease from Baseline (mean ± S.E.M.) of Paw Withdrawal Threshold” value (from here on “% Decrease from Baseline”) (male Sprague-Dawley rats [1]; [4]) was 61 ± 2.3%, the “Paw Withdrawal Threshold (g) (mean ± S.E.M.)” value (shortened to “Paw Withdrawal Threshold (g)”) (male Sprague-Dawley rats [1]; [4]) was 94 ± 5.3 g and the “% Decrease from Baseline” value (male Sprague-Dawley rats [1]; [5]) was 52 ± 4.3%. For the same compound, the “Paw Withdrawal Threshold (g)” value (male Sprague-Dawley rats [1]; [5]) was 115 ± 10.8 g, the “% Decrease from Baseline” value (male Sprague-Dawley rats [1]; [6]) was 65 ± 2.9% and the “Paw Withdrawal Threshold (g)” value (male Sprague-Dawley rats [1]; [6]) was 86 ± 7.7 g. The “Paw Withdrawal Threshold (g)” value (male Sprague-Dawley rats [1]; [7]) was 242 ± 6.0 g, the “% Change from Baseline (mean ± S.E.M.) of Paw Withdrawal Latency” value (“% Change from Baseline” below) (male Sprague-Dawley rats [2]; 1 h after administration) was −50.1 ± 25.49% and the “Paw Withdrawal Latency (sec) (mean ± S.E.M.)” value (“Paw Withdrawal Latency (sec)” for short) (male Sprague-Dawley rats [2]; 1 h after administration) was 8.6 ± 0.91 s. For the same compound, the “% Change from Baseline” value (male Sprague-Dawley rats [2]; 3 h after administration) was −27.1 ± 16.54%, the “Paw Withdrawal Latency (sec)” value (male Sprague-Dawley rats [2]; 3 h after administration) was 11.8 ± 0.66 s and the “% Change from Baseline” value (male Sprague-Dawley rats [2]; 5 h after administration) was −24.8 ± 15.95%. For the same compound, the “Paw Withdrawal Latency (sec)” value (male Sprague-Dawley rats [2]; 5 h after administration) was 12.1 ± 0.60 s, the “Paw Withdrawal Latency (sec)” value (male Sprague-Dawley rats [2]; [8]) was 14.4 ± 1.35 s and the “% WL (mean ± S.E.M.), percentage of weight borne on the burn-injured left hind paw” value (“% WL (mean ± S.E.M.), percentage” below) (male Sprague-Dawley rats [3]; [4]) was 39.2 ± 4.30 %. The “% WL (mean ± S.E.M.), percentage” value (male Sprague-Dawley rats [3]; [5]) was 43.1 ± 2.82%, the “% WL (mean ± S.E.M.), percentage” value (male Sprague-Dawley rats [3]; [6]) was 43.0 ± 3.37% and the “% WL (mean ± S.E.M.), percentage” value (male Sprague-Dawley rats [3]; [7]) was 49.4 ± 0.44%.

For NCC1(CC(=O)O)CCCCC1 [Gabapentin, gabapentin], the “% Decrease from Baseline” value (male Sprague-Dawley rats [1]; [9]) was 61 ± 2.1%, the “Paw Withdrawal Threshold (g)” value (male Sprague-Dawley rats [1]; [9]) was 90 ± 4.1 g and the “% Decrease from Baseline” value (male Sprague-Dawley rats [1]; [10]) was 55 ± 3.7%. For the same compound, the “Paw Withdrawal Threshold (g)” value (male Sprague-Dawley rats [1]; [10]) was 102 ± 7.4 g, the “% Decrease from Baseline” value (male Sprague-Dawley rats [1]; [11]) was 65 ± 3.0% and the “Paw Withdrawal Threshold (g)” value (male Sprague-Dawley rats [1]; [11]) was 81 ± 6.5 g. The “Paw Withdrawal Threshold (g)” value (male Sprague-Dawley rats [1]; 3 mg/kg IP, baseline (prior to drug administration)) was 232 ± 10.0 g, the “% Decrease from Baseline” value (male Sprague-Dawley rats [1]; [12]) was 47 ± 3.9% and the “Paw Withdrawal Threshold (g)” value (male Sprague-Dawley rats [1]; [12]) was 122 ± 9.1 g. For the same compound, the “% Decrease from Baseline” value (male Sprague-Dawley rats [1]; [13]) was 43 ± 3.7%, the “Paw Withdrawal Threshold (g)” value (male Sprague-Dawley rats [1]; [13]) was 130 ± 8.2 g and the “% Decrease from Baseline” value (male Sprague-Dawley rats [1]; [14]) was 57 ± 3.2%. For the same compound, the “Paw Withdrawal Threshold (g)” value (male Sprague-Dawley rats [1]; [14]) was 100 ± 8.7 g, the “Paw Withdrawal Threshold (g)” value (male Sprague-Dawley rats [1]; 10 mg/kg IP, baseline (prior to drug administration)) was 231 ± 9.7 g and the “% Decrease from Baseline” value (male Sprague-Dawley rats [1]; [15]) was 40 ± 2.0 %. For the same compound, the “Paw Withdrawal Threshold (g)” value (male Sprague-Dawley rats [1]; [15]) was 144 ± 7.2 g, the “% Decrease from Baseline” value (male Sprague-Dawley rats [1]; [16]) was 27 ± 5.1 % and the “Paw Withdrawal Threshold (g)” value (male Sprague-Dawley rats [1]; [16]) was 174 ± 14.8 g. The “% Decrease from Baseline” value (male Sprague-Dawley rats [1]; [17]) was 56 ± 4.0^ %, the “Paw Withdrawal Threshold (g)” value (male Sprague-Dawley rats [1]; [17]) was 105 ± 11.2 g and the “Paw Withdrawal Threshold (g)” value (male Sprague-Dawley rats [1]; 30 mg/kg IP, baseline (prior to drug administration)) was 237 ± 7.9 g. The “% Decrease from Baseline” value (male Sprague-Dawley rats [1]; [18]) was 37 ± 5.3 % and 23 ± 6.6 % and 41 ± 3.6 %, the “Paw Withdrawal Threshold (g)” value (male Sprague-Dawley rats [1]; [18]) was 152 ± 14.1 g and 180 ± 13.7 g and 145 ± 9.8 g and the “% Decrease from Baseline” value (male Sprague-Dawley rats [1]; [19]) was 53 ± 6.0^ % and 55 ± 4.6^ % and 56 ± 2.2^ %. The “Paw Withdrawal Threshold (g)” value (male Sprague-Dawley rats [1]; [19]) was 112 ± 12.4^ g and 105 ± 9.5 g and 108 ± 5.8^ g, the “Paw Withdrawal Threshold (g)” value (male Sprague-Dawley rats [1]; 100 mg/kg IP in 0.9% NaCl, baseline (prior to drug administration), 100 mg/kg) was 239 ± 7.7 g and 237 ± 7.8 g and 246 ± 4.5^ g and the “% WL (mean ± S.E.M.), percentage” value (male Sprague-Dawley rats [3]; 100 mg/kg IP in NaCl, 1 h after administration) was 33.6 ± 3.09 %. The “% WL (mean ± S.E.M.), percentage” value (male Sprague-Dawley rats [3]; 100 mg/kg IP in NaCl, 3 h after administration) was 44.8 ± 2.58%, the “% WL (mean ± S.E.M.), percentage” value (male Sprague-Dawley rats [3]; 100 mg/kg IP in NaCl, 5 h after administration) was 44.0 ± 2.24% and the “% WL (mean ± S.E.M.), percentage” value (male Sprague-Dawley rats [3]; 100 mg/kg IP in NaCl, baseline (prior to drug administration)) was 51.1 ± 0.57%.

For COc1ccc2c(c1)c(CC(=O)O)c(C)n2C(=O)c1ccc(Cl)cc1 [Indomethacin, indomethacin], the “% Decrease from Baseline” value (male Sprague-Dawley rats [1]; [4]) was 51 ± 2.6 %, the “% Decrease from Baseline” value (male Sprague-Dawley rats [1]; [5]) was 45 ± 5.8 % and the “% Decrease from Baseline” value (male Sprague-Dawley rats [1]; [6]) was 58 ± 3.6%. The “Paw Withdrawal Threshold (g)” value (male Sprague-Dawley rats [1]; [6]) was 103 ± 10.2 g, the “Paw Withdrawal Threshold (g)” value (male Sprague-Dawley rats [1]; [7]) was 240 ± 7.5 g and the “% Change from Baseline” value (male Sprague-Dawley rats [2]; 1 h after administration) was −41.5 ± 10.71%. The “Paw Withdrawal Latency (sec)” value (male Sprague-Dawley rats [2]; 1 h after administration) was 8.3 ± 0.91 s, the “% Change from Baseline” value (male Sprague-Dawley rats [2]; 3 h after administration) was −26.1 ± 13.18% and the “Paw Withdrawal Latency (sec)” value (male Sprague-Dawley rats [2]; 3 h after administration) was 11.2 ± 0.87 s. For the same compound, the “% Change from Baseline” value (male Sprague-Dawley rats [2]; 5 h after administration) was −25.5 ± 13.63%, the “Paw Withdrawal Latency (sec)” value (male Sprague-Dawley rats [2]; 5 h after administration) was 11.4 ± 0.51 s and the “Paw Withdrawal Latency (sec)” value (male Sprague-Dawley rats [2]; [8]) was 14.3 ± 1.26 s. For the same compound, the “% WL (mean ± S.E.M.), percentage” value (male Sprague-Dawley rats [3]; 30 mg/kg PO, 3 h after administration, 30 mg/kg) was 42.6 ± 2.14% and 46.8 ± 2.17%, the “% WL (mean ± S.E.M.), percentage” value (male Sprague-Dawley rats [3]; 30 mg/kg PO, 5 h after administration, 30 mg/kg) was 43.7 ± 2.38% and 48.2 ± 2.54% and the “% WL (mean ± S.E.M.), percentage” value (male Sprague-Dawley rats [3]; 30 mg/kg PO, baseline (prior to drug administration), 30 mg/kg) was 49.1 ± 0.53% and 50.4 ± 0.54%.
